For one experiment, the system named is ANGPT1 mRNA. It counts as cell-based, human. The conditions noted are these: ascorbic acid alone; 1 week; GAPDH internal standard; average ± SEM.
The subject of a further experiment is CSGALNACT1 mRNA. It counts as cell-based, human. The conditions noted are these: ascorbic acid alone; 1 week; GAPDH internal standard; average ± SEM.
The test system of another experiment is IGF1 mRNA. It counts as cell-based, human. The note with it: ascorbic acid alone; 1 week; GAPDH internal standard; average ± SEM.
Experiment [1] deals with human nucleus pulposus cells. Format: cell-based. The note with it: ascorbic acid alone (170 μM in medium), culture 2 weeks; average ± SEM; control 4.33 ± 0.38.

For the compound `O=C1O[C@H]([C@@H](O)CO)C(O)=C1O` [Ascorbic Acid, ascorbic acid], the “Ratio to Expression Level of ANGPT1 mRNA in Control Taken as 1” value in the experiment with ANGPT1 mRNA was 3.80 ± 0.91. Moreover, the “Ratio to Expression Level of CSGALNACT1 mRNA in Control Taken as 1” value in the experiment on CSGALNACT1 mRNA was found to be 2.25 ± 0.55. The “Ratio to Expression Level of IGF1 mRNA in Control Taken as 1” value with IGF1 mRNA was 8.92 ± 3.30. In addition, the “The Ratio of GAG to DNA” value in experiment [1] came out at 5.88 ± 0.73.

(Values after patent US20220079995A1 (priority 2018, published 2022).)
